In patent US11286273B2, “Rhamnolipid compounds and use thereof” (KOREA INSTITUTE OF OCEAN SCIENCE & TECHNOLOGY, priority 2019, dated 2022):

What was measured:
Type in all cases: cell-based
[1] = tested on: NCI-H23; experiment: SRB growth inhibition, NCI-H23 (liver cancer); settings: Homo sapiens, NCI-H23, 48 hours
Procedure: (§1) Human cancer cell lines HCT-15 (colon cancer), NUGC-3 (gastric cancer), NCI-H23 (liver cancer), ACHN (kidney cancer), PC-3 (prostate cancer) and MDA-MB-231 (breast cancer) were purchased from American Type Culture Collection (Manassas, Va.).
(§2) Cancer cell lines were cultured in RPMI 1640 supplemented with 10% fetal bovine serum (FBS) in a 5% CO2 humid atmosphere at 37° C. The evaluation of growth inhibitory ability against human cancer cell lines was performed via the Sulforhodamine B (SRB) method. The cells were dispensed into a 96-well plate at a density of 8,000 cells/well, and the next day, cells were treated with compounds 1 to 3 (0.1% DMSO as vehicle control), and treated with a positive control (adriamycin). After incubation for 48 hours, the culture fluid was fixed with 50% trichloroacetic acid ([…]) and stained with 0.4% sulforhodamine B contained in 1% acetic acid. The unbound dye was washed with 1% acetic acid, and the dye bound to the protein was extracted with 10 mM Tris base (pH 10.5) to determine the optical density. The absorbance at 540 nm was determined using a VersaMax microplate reader (Molecular Devices, LLC, Sunnyvale, Calif., USA). The GI50 values were calculated using GraphPad Prism 4.0 software (GraphPad Software, Inc., San Diego, Calif., USA) and shown in Table 3 below.

[2] = tested on: NUGC-3; experiment: SRB growth inhibition, NUGC-3 (gastric cancer); settings: Homo sapiens, NUGC-3, 48 hours
Procedure: as §1, §2

[3] = tested on: MDA-MB-231; experiment: SRB growth inhibition, MDA-MB-231 (breast cancer); settings: Homo sapiens, MDA-MB-231, 48 hours
Procedure: as §1, §2

[4] = tested on: HCT-15; experiment: SRB growth inhibition, HCT-15 (colon cancer); settings: Homo sapiens, HCT-15, 48 hours
Procedure: as §1, §2

[5] = tested on: Human cancer cell lines; experiment: SRB growth inhibition, panel of six human cancer cell lines (summary); settings: for GI50: Homo sapiens, range over the six cancer cell lines of Table 3
Procedure: as §1, §2

[6] = tested on: PC-3; experiment: SRB growth inhibition, PC-3 (prostate cancer); settings: Homo sapiens, PC-3, 48 hours
Procedure: as §1, §2

[7] = tested on: ACHN; experiment: SRB growth inhibition, ACHN (kidney cancer); settings: Homo sapiens, 48 hours
Procedure: as §1, §2

| GI50 [1] [µM] | GI50 [2] [µM] | GI50 [3] [µM] | GI50 [4] [µM] | GI50 [5] [µM] | GI50 [6] [µM] | GI50 [7] [µM] | Compound | activity against cancer cell lines ([5]; summary in words of Table 3) |
| --- | --- | --- | --- | --- | --- | --- | --- | --- |
| 27.5 | 30.6 | 30.6 | 41.5 | 13.7 to 41.5 | 37.8 | 34.2 | CC1OC(O[C@H](CCCCCCCCCCCCC[C@@H](C)O)CC(=O)O)C(O)C(O)C1O (stereo in doubt) [Compound 1, 17-hydroxy-3-(3,4,5-trihydroxy-6-methyltetrahydro-2H-pyran-2-yloxy)octadecanoic acid] | – |
| 13.7 | 19.3 | 40.4 | 16.7 | 13.7 to 41.5 | 18.2 | 14.1 | CC(=O)CCCCCCCCCCCCC[C@H](CC(=O)O)OC1OC(C)C(O)C(O)C1O (stereo in doubt) [Compound 2, 17-oxo-3-(3,4,5-trihydroxy-6-methyltetrahydro-2H-pyran-2-yloxy)octadecanoic acid] | particularly excellent activity |
| 1.4 | 1.5 | 1.5 | 1.4 | – | 1.4 | 1.3 | COc1cccc2c1C(=O)c1c(O)c3c(c(O)c1C2=O)C[C@@](O)(C(=O)CO)C[C@@H]3O[C@H]1C[C@H](N)[C@H](O)[C@H](C)O1 [ADR, adriamycin, reference compound] | – |
| 36.9 | 32 | 25.5 | 26.9 | 13.7 to 41.5 | 33.3 | 29.1 | CC1OC(OC2C(O[C@H](CCCCCCCCCCCCC[C@@H](C)O)CC(=O)O)OC(C)C(O)C2O)C(O)C(O)C1O (stereo partly shown) [Compound 3, 3-(4,5-dihydroxy-6-methyl-3-(3,4,5-trihydroxy-6-methyltetrahydro-2H-pyran-)2-yloxy)tetrahydro-(2H-pyran-2-yloxy)-17-hydroxyoctadecanoic acid] | – |
